Each compound was assayed on purified human Hsp90 (assay: Binding Assay: fluorescence polarization with BODIPY-labeled geldanamycin). Conditions: 5 μM compound, BODIPY-GM 10 nM, Hsp90 30 nM.
In short: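 Compounds in 2% DMSO final compete with 10 nM BODIPY-GM for 30 nM purified human Hsp90, incubated overnight at room temperature in pH 7.3 HEPES buffer containing Na2MoO4 and DTT. Polarization (mP, ex/em 485/530) normalized to DMSO gives percent inhibition; autofluorescence-confounded data excluded.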

% Inhibition at 5 μM Compound Concentration	Structure (SMILES)
3%	CC(C)(C)OC(=O)N1CCCC(CCn2cnc(N)c3nc(Sc4cc5c(cc4Br)OCO5)nc2-3)C1 (stereo not shown) [Example 345, tert-Butyl 3-(2-{6-amino-8-[(6-bromo-1,3-benzodioxol-5-yl)thio]-3H-purin-3-yl}ethyl)piperidine-1-carboxylate]
0%	COc1ccc(OC)c(Sc2nc3c(N)ncn(CCc4ccccc4[N+](=O)[O-])c-3n2)c1 [Example 206, 8-(2,5-dimethoxy-phenylsulfanyl)-3-[2-(2-nitro-phenyl)-ethyl]-3H-purin-6-ylamine]
55%	Nc1ncnc2c1nc(Sc1ccc3c(c1)OCO3)n2CCn1cccc1 [Example 49, 8-(Benzo[1,3]dioxol-5-ylsulfanyl)-9-(2-pyrrol-1-yl-ethyl)-9H-purin-6-ylamine]
23%	COc1ccc(OC)c(Sc2nc3c(N)ncnc3n2CCc2ccc(C(=O)O)cc2)c1 [Example 81, 4-{2-[6-Amino-8-(2,5-dimethoxy-phenylsulfanyl)-purin-9-yl]-ethyl}-benzoic acid]
3%	COc1ccc(OC)c(Sc2nc3c(N)ncn(CCc4c(C)cc(C)cc4C)c-3n2)c1 [Example 56, 8-(2,5-dimethoxy-phenylsulfanyl)-3-[2-(2,4,6-trimethyl-phenyl)-ethyl]-3H-purin-6-ylamine]
19.00%	CC(C)(C)OC(=O)N1CCC(Cn2cnc(N)c3nc(Sc4cc5c(cc4Br)OCO5)nc2-3)CC1 [Example 640, tert-Butyl 4-({6-amino-8-[(6-bromo-1,3-benzodioxol-5-yl)thio]-3 H-purin-3-yl}methyl)piperidine-1-carboxylate]
0%	Cc1cc(C)c(CCn2cnc(N)c3nc(Sc4cc5c(cc4Br)OCO5)nc2-3)c(C)c1 [Example 94, 8-(6-bromo-benzo[1,3]dioxol-5-ylsulfanyl)-3-[2-(2,4,6-trimethyl-phenyl)-ethyl]-3H-purin-6-ylamine]
29%	CC(C)N1CCN(CCn2cnc(N)c3nc(Sc4cc5c(cc4Br)OCO5)nc2-3)CC1 [Example 488, 8-[(6-Bromo-1,3-benzodioxol-5-yl)thio]-3-[2-(4-isopropylpiperazin-1-yl)ethyl]-3H-purin-6-amine]
25.00%	COc1ccc(OC)c(Sc2nc3c(N)ncn(CCN4CCOCC4)c-3n2)c1 [Example 636, 8-[(2,5-Dimethoxyphenyl)thio]-3-(2-morpholin-4-ylethyl)-3 H-purin-6-amine]
0.00%	Nc1ncn(CCC2CCN(C=O)CC2)c2nc(Sc3ncccc3Br)nc1-2 [Example 551, 4-(2-{6-Amino-8-[(3-bromopyridin-2-yl)thio]-3 H-purin-3-yl}ethyl)piperidine-1-carbaldehyde]
38%	COc1ccc(OC)c(Sc2nc3c(N)ncn(CC(c4ccccc4)C4CCCC4)c-3n2)c1 (stereo not shown) [Example 104, 3-(2-cyclopentyl-2-phenyl-ethyl)-8-(2,5-dimethoxy-phenylsulfanyl)-3H-purin-6-ylamine]
4%	CC(C)(C)OC(=O)Nc1ccc(CCn2cnc(N)c3nc(Sc4cc5c(cc4Br)OCO5)nc2-3)cc1 [Example 212, (4-{2-[6-amino-8-(6-bromo-benzo[1,3]dioxol-5-ylsulfanyl)-purin-3-yl]-ethyl}-phenyl)carbamic acid tert-butyl ester]
0%	COc1ccc(OC)c(Sc2nc3c(N)ncn(CCC4CCN(C(=O)OC(C)(C)C)CC4)c-3n2)c1 [Example 343, tert-Butyl 4-(2-{6-amino-8-[(2,5-dimethoxyphenyl)thio]-3H-purin-3-yl}ethyl)piperidine-1-carboxylate]

Same assay, conditions: BODIPY-GM 10 nM, Hsp90 30 nM

IC50	Structure (SMILES)
> 5000 nM	COc1cc(Sc2nc3c(N)ncnc3n2CCC2CCN(C(C)=O)CC2)c(OC)cc1Cl [Example 563, 9-[2-(1-Acetylpiperidin-4-yl)ethyl]-8-[(4-cloro-2,5-dimethoxyphenyl)thio]-9 H-purin-6-amine]
> 8000 nM	COc1ccc(OC)c(Sc2nc3c(N)ncnc3n2C2Cc3ccccc3C2O)c1 (stereo not shown) [Example 235, 2-{6-Amino-8-[(2,5-dimethoxyphenyl)thio]-9H-purin-9-yl}indan-1-ol]
2000 nM	Nc1ncnc2c1nc(Sc1cc3c(cc1Br)OCO3)n2CCC(N)C1CCOCC1 (stereo not shown) [Example 692, 9-[3-Amino-3-(tetrahydro-pyran-4-yl)-propyl]-8-(6-bromo-benzo[1,3]dioxol-5-ylsulfanyl)-9H-purin-6-ylamine]
> 25000 nM	COc1ccc(C#N)cc1Sc1nc2c(N)ncnc2n1CCc1ccccc1 [Example 304, 3-{[6-Amino-9-(2-phenylethyl)-9H-purin-8-yl]thio}-4-methoxybenzonitrile]
85 nM	COc1ccc(OC)c(Sc2nc3c(N)ncnc3n2CCc2c(F)cccc2Cl)c1 [Example 122, 9-[2-(2-chloro-6-fluoro-phenyl)-ethyl]-8-(2,5-dimethoxy-phenylsulfanyl)-9H-purine-6-ylamine]
800 nM	COc1ccc(OC)c(Sc2nc3c(N)ncnc3n2CCc2cccc(F)c2)c1 [Example 37, 8-(2,5-Dimethoxy-phenylsulfanyl)-9-[2-(3-fluoro-phenyl)-ethyl]-9H-purin-6-ylamine]
90 nM	N=C(N)N1CCC(CCn2c(Sc3cc4c(cc3Br)OCO4)nc3c(N)ncnc32)CC1 [Example 616, 4-(2-{6-Amino-8-[(6-bromo-1,3-benzodioxol-5-yl)thio]-9 H-purin-9-yl}ethyl)piperidine-1-carboximidamide]
> 25000 nM	Nc1ncnc2c1nc(Sc1cc(Cl)c(Cl)cc1Cl)n2CCc1ccccc1Cl [Example 262, 9-[2-(2-Chlorophenyl)ethyl]-8-[(2,4,5-trichlorophenyl)thio]-9H-purin-6-amine]
70 nM	CN(C)CC(=O)N1CCC(CCn2c(Sc3cc4c(cc3Br)OCO4)nc3c(N)ncnc32)CC1 [Example 707, 8-[(6-Bromo-1,3-benzodioxol-5-yl)thio]-9-(2-{1-[(dimethylamino)acetyl]piperidin-4-yl}ethyl)-9H-purin-6-amine]
700 nM	CC(C)CN1CCC(CCn2c(Sc3cc4c(cc3Br)OCO4)nc3c(N)ncnc32)CC1 [Example 453, 8-[(6-Bromo-1,3-benzodioxol-5-yl)thio]-9-[2-(1-isobutylpiperidin-4-yl)ethyl]-9H-purin-6-amine]
1200 nM	Nc1ncnc2c1nc(Sc1ccc3c(c1)OCO3)n2CCn1cccc1 [Example 49, 8-(Benzo[1,3]dioxol-5-ylsulfanyl)-9-(2-pyrrol-1-yl-ethyl)-9H-purin-6-ylamine]
230 nM	Nc1ncnc2c1nc(Sc1cc3c(cc1Br)OCO3)n2CCc1ccc(Cl)cc1F [Example 39, 8-(6-Bromo-benzo[1,3]dioxol-5-ylsulfanyl)-9-[2-(4-chloro-2-fluorophenyl)-ethyl]-9H-purin-6-ylamine]
400 nM	Nc1ncnc2c1nc(Sc1cc3c(cc1Br)OCO3)n2CCc1ccc(O)cc1 [Example 300, 4-(2-{6-Amino-8-[(6-bromo-1,3-benzodioxol-5-yl)thio]-9H-purin-9-yl}ethyl)phenol]
330 nM	CN[C@@H](C)C(=O)N1CCC(CCn2c(Sc3cc4c(cc3Br)OCO4)nc3c(N)ncnc32)CC1 [Example 749, 8-[(6-Bromo-1,3-benzodioxol-5-yl)thio]-9-(2-{1-[(2S)-2-(methylamino)propanoyl]piperidin-4-yl}ethyl)-9H-purin-6-amine]
45 nM	Cn1nnnc1N1CCC(CCn2c(Sc3cc4c(cc3Br)OCO4)nc3c(N)ncnc32)CC1 [Example 609, 8-[(6-Bromo-1,3-benzodioxol-5-yl)thio]-9-{2-[1-(1-methyl-1 H-tetrazol-5-yl)piperidin-4-yl]ethyl}-9 H-purin-6-amine]
684 nM	Nc1ncnc2c1nc(Sc1cc3c(cc1Br)OCO3)n2CC1CCNCC1 [Example 648, 8-[(6-bromo-1,3-benzodioxol-5-yl)thio]-9-(piperidin-4-ylmethyl)-9H-purin-6-amine]
102 nM	CC(=O)N1CCC(CCn2c(Sc3cc4c(cc3Br)OCO4)nc3c(N)ncnc32)CC1 [Example 364, 9-[2-(1-Acetylpiperidin-4-yl)ethyl]-8-[(6-bromo-1,3-benzodioxol-5-yl)thio]-9H-purin-6-amine]
25000 nM	Nc1ncn(CCN2C(=O)CCCC2=O)c2nc(Sc3cc4c(cc3Br)OCO4)nc1-2 [Example 497, 1-(2-{6-amino-8-[(6-bromo-1,3-benzodioxol-5-yl)thio]-3H-purin-3-yl}ethyl)piperidine-2,6-dione]
70 nM	Cc1ncsc1CCn1c(Sc2cc3c(cc2Br)OCO3)nc2c(N)ncnc21 [Example 330, 8-[(6-Bromo-1,3-benzodioxol-5-yl)thio]-9-[2-(4-methyl-1,3-thiazol-5-yl)ethyl]-9H-purin-6-amine]
9000 nM	COc1ccc(OC)c(Sc2nc3c(N)ncn(CCN4CCN(C(C)=O)CC4)c-3n2)c1 [Example 630, 3-[2-(4-Acetylpiperazin-1-yl)ethyl]-8-[(2,5-dimethoxyphenyl)thio]-3 H-purin-6-amine]
130 nM	COCC(=O)N1CCC(CCn2c(Sc3cc4c(cc3Br)OCO4)nc3c(N)ncnc32)CC1 [Example 722, 8-[(6-Bromo-1,3-benzodioxol-5-yl)thio]-9-{2-[1-(methoxyacetyl)piperidin-4-yl]ethyl}-9H-purin-6-amine]
21000 nM	CC(=O)N1CCN(CCn2cnc(N)c3nc(Sc4cc5c(cc4Br)OCO5)nc2-3)CC1 [Example 383, 3-[2-(4-Acetylpiperazin-1-yl)ethyl]-8-[(6-bromo-1,3-benzodioxol-5-yl)thio]-3H-purin-6-amine]
195 nM	Nc1ncnc2c1nc(Sc1cc3c(cc1Br)OCO3)n2CCC1CCN(C(=O)C2(N)CC2)CC1 [Example 751, 9-(2-{1-[(1-Amino-cyclopropyl)carbonyl]piperidine-4-yl}ethyl)-8-[(6-bromo-1,3-benzodioxol-5-yl)thio]-9H-purin-6-amine]
> 25000 nM	CC1=NNC(=O)C1CCn1c(Sc2cc3c(cc2Br)OCO3)nc2c(N)ncnc21 (stereo not shown) [Example 406, 4-(2-{6-Amino-8-[(6-bromo-1,3-benzodioxol-5-yl)thio]-9H-purin-9-yl}ethyl)-5-methyl-2,4-dihydro-3H-pyrazol-3-one]

Reference: US7595401B2, “Therapeutic compounds and their use in cancer” (Myriad Pharmaceuticals, Inc., priority 2006, dated 2009)
